Laboratory results as given in article PMC10141580, “Cyclic Dichalcogenides Extend the Reach of Bioreductive Prodrugs to Harness Thiol/Disulfide Oxidoreductases: Applications to seco-Duocarmycins Targeting the Thioredoxin System” (ACS Central Science, 2023).
Where two headings read alike, the source gives them in different places.

Tests used:
[1] = tested on: HeLa-HRE cells; assay: Resazurin cytotoxicity assay, HeLa-HRE, 48 h; settings: for IC50(HeLa)/IC50(A549): ratio HeLa vs A549
Procedure: (§1) We used A549 lung cancer and HeLa cervical cancer cell lines for initial screening of the prodrugs.
HeLa-HRE cells were treated with prodrugs of the
Dose -response curves were calculated from at least 27 incremental single concentrations over a
range of at least three log units.

[2] = tested on: A549 cells; assay: Resazurin cytotoxicity assay, A549, 72 h; settings: read-out: IC50(nM): A549
Procedure: as §1
Fi gure S9: Cell ular resazurin-based cytotoxi ci ty as s a y.
Dose -response curves were calculated from at least 27 incremental single concentrations over a range
of at least three log units. Individual experiments with annotated experiment numbers are shown for each prodrug

[3] = tested on: mouse; assay: Tolerability for repeated dose administration in vivo (summary); settings: weekly or twice-weekly administration
[4] = read-out: IC50(nM): HeLa, HeLa, 48 h

Row | SMILES | IC50 ([1]; initial screening, A549 and HeLa cell lines) [nM] | IC50(HeLa)/IC50(A549) [1] | IC50 [1, 4] [nM] | IC50 [2] [nM] | well-tolerated dose [3] [mg/kg]
1 | O=C(c1cc2cc(OCCCN3CCC3)ccc2[nH]1)N1CC(CCl)c2c1cc(OC(=O)N1CCCC3COCC31)c1ccccc21 (mixture of isomers) [O56-CBI-AZI] | ~300 | 1.1 | 460 | 410 | 1
2 | COC(=O)Oc1cc2c(c3ccccc13)[C@H](CCl)CN2C(=O)c1cc2cc(OCCCN3CCC3)ccc2[nH]1 [MC-CBI-AZI] |  | 0.5 | 0.8 | 1.6 | 
3 | COC(=O)Oc1cc2c(c3ccccc13)[C@H](CCl)CN2C(=O)c1cc2cc(OC)c(OC)c(OC)c2[nH]1 [MC-CBI-TMI] |  | 1.5 | 4.3 | 2.9 | 
